Measured values published in PMC13089524, “Development of SYK NanoBRET cellular target engagement assays for gain–of–function variants” (Frontiers in chemical biology, 2024).
Blank lines part the entries; values can stand above or below the molecule they belong to.

What was measured:
JAK1 = details: ref Ma et al., 2015; Guo et al., 2017; cited from earlier work
SYK(P342T)-NL [1] = biological target: T1, SYK(P342T)-NL (Homo sapiens, UniProt P43405, P342T); assay: NanoBRET cellular target engagement assay in intact live HEK293 cells, SYK(P342T)-NL; assay type: cell-based
T1 construct: host or cells: HEK293
Method: (§1) NL orientations used in the respective assays are indicated. […] Plates were incubated for 25 min at room temperature if digitonin was added or for 2 h at 37°C in 5% CO2 for the intact cell NanoBRET assay. […] For intact live cells in a 96-well plate, the 3X stock solution was prepared with 30 μL of NanoBRET NanoGlo substrate, 10 μL of extracellular NanoLuc inhibitor, and 4,960 μL of Opti-MEM without phenol red. For digitonin permeabilized live cells in a 96-well plate, the 3X stock solution was prepared with 30 μL of NanoBRET NanoGlo substrate and 4,970 μL of Opti-MEM without phenol red. Raw milliBRET units (mBU) were read on a GloMax Discover system (Promega) with a donor emission wavelength of 450 nm and an acceptor emission wavelength of 600 nm. mBU were calculated by dividing the acceptor emission values (600 nm) by the donor emission values (450 nm). For NanoBRET studies with SYK, background corrected mBU were calculated by subtracting the no tracer wells from the tracer-containing wells and multiplying by 1,000.
(§2) MRL-SYKi was used to compete away the NanoBRET signal produced with tracer 8. […] Tracer 8 was prepared in DMSO and DMEM without phenol red in 11-point dose-response format with 3 μM as the top concentration, with a final assay plate concentration of 1% DMSO. 10X stock solutions of MRL-SYKi were prepared from 10 mM DMSO stock solution with room temperature Opti-MEM without phenol red, for final assay plate concentrations of 10 μM. 10 μL of 8 (10X) was added to each well, with the exception of the no tracer control wells, and 10 μL of 10X solutions of MRL-SYKi was added to wells for tracer competition. One biological replicate was plotted in GraphPad Prism with [inhibitor] vs response (three parameters).
(§3) MRL-SYKi was tested in 11-point dose–response format with a top concentration of 10 μM. […] The final assay plate concentrations included 1% DMSO. 5 μL of 8 (20X) was added to each well, except the no tracer control wells, and 10 μL of 10X threefold diluted solutions of MRL-SYKi was added to wells. Two biological replicates were plotted in GraphPad Prism with log[inhibitor] vs response (three parameters) with the error bars indicating standard deviation.
(§4) Compounds were tested in 11-point dose–response format with a top concentration of 10 μM. Data are reported as IC50 ± standard error mean (SEM). One biological replicate was plotted in GraphPad Prism with log[inhibitor] vs response (three parameters), the three IC50’s were averaged and the SEM was calculated.

SYK(S550F)-NL [2] = biological target: T2, SYK(S550F)-NL (Homo sapiens, UniProt P43405, S550F); assay: NanoBRET cellular target engagement assay in intact live HEK293 cells, SYK(S550F)-NL; assay type: cell-based
T2 construct: host or cells: HEK293
Method: as §1, §2, §3, §4

TNK1 = details: only off-target kinase bound; ref Sharman et al., 2015; Cooper et al., 2023; cited from earlier work
SYK(S550F)-NL [3] = biological target: T2, SYK(S550F)-NL; assay: NanoBRET assay in digitonin permeabilized HEK293 cells, SYK(S550F)-NL; assay type: cell-based; details: relative to MRL-SYKi (20 μM) treated cells, single experiment, read-out: EC50 of tracer, SYK(variant)-NL S550F
Method: (§5) We performed NanoBRET tracer optimization to determine if the SYK tracers could effectively generate a BRET signal. […] To enable the NanoBRET assay using tracer 8 with cells permeabilized by digitonin, a tracer dose–response study was performed for each SYK(GoF) variant and SYK(WT) (Figure 3A), followed by tracer titration experiments (Figure 3B; Supplementary Figure S3). […] Initially, we determined the EC50 of tracer 8 for each SYK(GoF) variant and SYK(WT). […] Plates were incubated for 25 min at room temperature if digitonin was added or for 2 h at 37°C in 5% CO2 for the intact cell NanoBRET assay. […] For intact live cells in a 96-well plate, the 3X stock solution was prepared with 30 μL of NanoBRET NanoGlo substrate, 10 μL of extracellular NanoLuc inhibitor, and 4,960 μL of Opti-MEM without phenol red. […] Raw milliBRET units (mBU) were read on a GloMax Discover system (Promega) with a donor emission wavelength of 450 nm and an acceptor emission wavelength of 600 nm. mBU were calculated by dividing the acceptor emission values (600 nm) by the donor emission values (450 nm). For NanoBRET studies with SYK, background corrected mBU were calculated by subtracting the no tracer wells from the tracer-containing wells and multiplying by 1,000. […]

SYK(WT) = biological target: T3, SYK(WT) (Homo sapiens, UniProt P43405); assay: PhosphoSens SOX peptide kinase activity assay, SYK(WT); assay type: biochemical; details: dose-response, purified protein
T3 construct: Full-length human SYK(WT) DNA was custom synthesized (GenScript); 6His (N, cleaved yes); GST (N, cleaved yes); made in house; host or cells: Sf9 insect cells (baculovirus, pFastbac1)
Source text: Full-length human SYK(WT) DNA was custom synthesized (GenScript) as a codon optimized form for expression in Sf9 cells. N-terminal 6His and GST tags were introduced, followed by a TEV protease cleavage site, and cloned into pFastbac1. SYK(S550F) and SYK(P342T) were generated by site-directed mutagenesis of SYK(WT) using the NEB Q5 site directed mutagenesis kit. Plasmids were transformed into E. coli DH10Bac for bacmid generation. Recombinant bacmid DNA was used to transfect Sf9 cells to generate viral stocks. For large-scale protein production, 2 L of Sf9 cells at 2 × 10^6 cells/ml were infected with a P2 virus stock and allowed to incubate with shaking for 3 days at 27°C. Harvested cells were lysed in 200 mL lysis buffer containing 50 mM HEPES (pH 7.5), 500 mM NaCl, 10 mM imidazole, 10% glycerol, 1 mM TCEP. […]
SYK kinase activity was evaluated using a continuous kinase assay using a PhosphoSens (AssayQuant) SOX peptide, according to the protocol provided, with modifications. […] Fluorescence readings were taken at 30-s intervals for a duration ranging from 30 min to an hour, using a PheraStar FX device set to kinetic mode, employing an appropriate optics module (FI 350 460). The data was represented as a plot of relative fluorescence over time, deducting the fluorescence of control reactions (which lacked kinase) from the fluorescence recorded after introducing the kinase. […]

[4] = Solubility of tracer in NanoBRET assay medium; assay type: physicochemical; details: dose-response top concentration 3 μM
SYK(M450I)-NL = biological target: T4, SYK(M450I)-NL (Homo sapiens, UniProt P43405, M450I); assay: NanoBRET assay in digitonin permeabilized HEK293 cells, SYK(M450I)-NL; assay type: cell-based; details: relative to MRL-SYKi (20 μM) treated cells, single experiment, read-out: EC50 of tracer, SYK(variant)-NL M450I
T4 construct: host or cells: HEK293
Method: as §5

SYK(P342T)-NL [5] = biological target: T1, SYK(P342T)-NL; assay: NanoBRET assay in digitonin permeabilized HEK293 cells, SYK(P342T)-NL; assay type: cell-based; details: relative to MRL-SYKi (20 μM) treated cells, single experiment, read-out: EC50 of tracer, SYK(variant)-NL P342T
Method: as §5

SYK(WT)-NL = biological target: T5, SYK(WT)-NL (Homo sapiens, UniProt P43405); assay: NanoBRET assay in digitonin permeabilized HEK293 cells, SYK(WT)-NL; assay type: cell-based
T5 construct: SYK tracers enable BRET with full-length SYK(WT) after digitonin permeabilization; host or cells: HEK293
Method: We performed NanoBRET tracer optimization to determine if the SYK tracers could effectively generate a BRET signal. […] To enable the NanoBRET assay using tracer 8 with cells permeabilized by digitonin, a tracer dose–response study was performed for each SYK(GoF) variant and SYK(WT) (Figure 3A), followed by tracer titration experiments (Figure 3B; Supplementary Figure S3). […] Initially, we determined the EC50 of tracer 8 for each SYK(GoF) variant and SYK(WT). […] Plates were incubated for 25 min at room temperature if digitonin was added or for 2 h at 37°C in 5% CO2 for the intact cell NanoBRET assay. […] For intact live cells in a 96-well plate, the 3X stock solution was prepared with 30 μL of NanoBRET NanoGlo substrate, 10 μL of extracellular NanoLuc inhibitor, and 4,960 μL of Opti-MEM without phenol red. For digitonin permeabilized live cells in a 96-well plate, the 3X stock solution was prepared with 30 μL of NanoBRET NanoGlo substrate and 4,970 μL of Opti-MEM without phenol red. Raw milliBRET units (mBU) were read on a GloMax Discover system (Promega) with a donor emission wavelength of 450 nm and an acceptor emission wavelength of 600 nm. mBU were calculated by dividing the acceptor emission values (600 nm) by the donor emission values (450 nm). For NanoBRET studies with SYK, background corrected mBU were calculated by subtracting the no tracer wells from the tracer-containing wells and multiplying by 1,000.
HEK293 cells were transfected with constructs of SYK(WT) or SYK(KD) tagged with NL on the C- or N-terminus and SYK GoF variants tagged with NL on the C-terminus. Tracer 8 (20X) was prepared from a 400 μM stock solution in DMSO with tracer dilution buffer (Promega, #N291B) and 20% DMSO, with a final assay plate concentration of 1% DMSO. 5 μL of 8 (20X) was added to each well, with exception of the no tracer control wells, with final plate concentrations of 0.5, 1, and 2 μM. 10 μL of digitonin (Fisher, 10X, 500 μg/mL) was added to specific wells to permeabilize the cells. The 10X digitonin stock was prepared by diluting a 40X DMSO solution of digitonin with room temperature Opti-MEM without phenol red, for a final assay plate concentration of 1% DMSO. SYK inhibitor stock solutions of MRL-SYKi (10X) were prepared from 10 mM DMSO stock solutions with room temperature Opti-MEM without phenol red, for final assay plate concentrations of 10 μM. Plates were incubated for 25 min at room temperature if digitonin was added or for 2 h at 37°C in 5% CO2 for the intact cell NanoBRET assay. Two technical replicates were plotted in a bar chart with the standard deviation represented as error bars on Graphpad Prism.

SYK = biological target: T6, SYK (Homo sapiens, UniProt P43405); assay: Eurofins DiscoverX SYK enzymatic radiometric assay; assay type: biochemical
T6 construct: purchased Eurofins DiscoverX (contract assay service)
Source text: Eurofins kinase enzymatic radiometric assays were executed at the Km value for ATP in dose–response (9-pt curve) format for SYK, included in Table 1 as enzymatic IC50 values.

SYK(S550Y)-NL [6] = biological target: T7, SYK(S550Y)-NL (Homo sapiens, UniProt P43405, S550Y); assay: NanoBRET cellular target engagement assay in intact live HEK293 cells, SYK(S550Y)-NL; assay type: cell-based; details: intact cells, ± 10 μM MRL-SYKi, single experiment; read-out: cellular EC50 of the tracer, SYK(S550Y)-NL
T7 construct: host or cells: HEK293
Method: as §1, §2, §3, §4

SYK(S550Y)-NL [7] = biological target: T7, SYK(S550Y)-NL; assay: NanoBRET assay in digitonin permeabilized HEK293 cells, SYK(S550Y)-NL; assay type: cell-based; details: relative to MRL-SYKi (20 μM) treated cells, single experiment, read-out: EC50 of tracer, SYK(variant)-NL S550Y
Method: as §5

SYK(A353T)-NL = biological target: T8, SYK(A353T)-NL (Homo sapiens, UniProt P43405, A353T); assay: NanoBRET assay in digitonin permeabilized HEK293 cells, SYK(A353T)-NL; assay type: cell-based; details: relative to MRL-SYKi (20 μM) treated cells, single experiment, read-out: EC50 of tracer, SYK(variant)-NL A353T
T8 construct: host or cells: HEK293
Method: as §5

[8] = system: pSYK(Y525/526) in SW480 cells stably expressing SYK(S550Y); details: ref Wang et al. (2021); cited from earlier work

Structure (SMILES): CCS(=O)(=O)N1CCN(c2ccc(Nc3ncc(C(N)=O)c(NC4CC4)n3)cc2)CC1 [Cerdulatinib]
IC50 (JAK1): 12 nM | IC50 (SYK(P342T)-NL [1]; intact HEK293 cells, 125 nM tracer 8, average of triplicate ± SEM, read-out: SYK(P342T) IC50): 360 ± 36 nM | IC50 (SYK(S550F)-NL [2]; intact HEK293 cells, 125 nM tracer 8, average of triplicate ± SEM, read-out: SYK(S550F) IC50): 170 ± 21 nM

Structure (SMILES): c1cn2cc(-c3ccc4cn[nH]c4c3)nc(Nc3ccc(N4CCOCC4)cc3)c2n1 [Entospletinib]
Kd (TNK1): < 100 nM

EC50 (SYK(S550F)-NL [3]): 7 nM | effect on SYK(WT) catalytic activity (SYK(WT)): inhibits SYK(WT) catalytic activity | EC50 (SYK(P342T)-NL [1]; intact cells, ± 10 μM MRL-SYKi, single experiment, read-out: cellular EC50 of the tracer, SYK(P342T)-NL): 280 nM | EC50 (SYK(S550F)-NL [2]; intact cells, ± 10 μM MRL-SYKi, single experiment, read-out: cellular EC50 of the tracer, SYK(S550F)-NL): 273 nM | solubility [4]: solubility issues at >3 μM | EC50 (SYK(M450I)-NL): 65 nM | EC50 (SYK(P342T)-NL [5]): 9 nM | BRET signal (background subtracted) (SYK(WT)-NL; C-terminal NL fusion, tracer 0.5, 1, 2 μM): approximately 15 mBU | EC50 (SYK(WT)-NL; relative to MRL-SYKi (20 μM) treated cells, single experiment, read-out: EC50 of tracer, SYK(variant)-NL WT): 39 nM | IC50 (SYK; Km value for ATP, 9-pt dose-response): 110 nM | decrease in potency compared to the parent inhibitor MRL-SYKi (SYK; ratio of enzymatic IC50): 3.6 fold | EC50 (SYK(S550Y)-NL [6]): 159 nM | EC50 (SYK(S550Y)-NL [7]): 8 nM | EC50 (SYK(A353T)-NL): 24 nM
Structure (SMILES): Cc1cc(Nc2nccc(C)n2)cc(-c2cnc([C@@]3(O)CC[C@H](C(=O)NCCCNC(=O)CCc4ccc5n4[B-](F)(F)[N+]4=C(c6ccc[nH]6)C=CC4=C5)C(C)(C)C3)s2)c1 [Tracer 8]

Structure (SMILES): COc1cc(Nc2ncc(F)c(Nc3ccc4c(n3)NC(=O)C(C)(C)O4)n2)cc(OC)c1OC [Tracer R406]
S550Y phosphorylation levels [8]: decrease S550Y phosphorylation levels
